Where a name gives a salt, the structure may show the parent alone.
Assays:
[1] = tested on: Brazilian ZIKV strain (ZIKV-BR) in cervical cells; test: Plaque-forming reduction assay, supernatants of infected cervical cells; format: cell-based, Zika virus; settings: for inhibition at 6 µM / inhibition at 12 µM / EC50 / EC90 / inhibition at 25 µM: Zika virus; for inhibition at 6 µM: MOI 10, 6 µM; for inhibition at 6 µM / inhibition at 12 µM / inhibition at 25 µM: read-out: Cervical cells PFR (%); for EC50 / EC90: plaque-forming reduction, MOI 10, 48 h; for inhibition at 25 µM: MOI 10, 25 µM
[2] = Cytotoxicity assay (PrestoBlue) in mock-infected Vero cells; format: cell-based; settings: African green monkey, Vero cells (kidney)
[3] = tested on: Brazilian ZIKV strain (ZIKV-BR) in cervical cells; format: cell-based, Zika virus; settings: ZIKV-BR MOI 10, 12 µM, 48 h, versus 0.12% DMSO
[4] = tested on: baby hamster kidney cells (BHK-21); settings: cited from earlier work
[5] = tested on: Brazilian ZIKV strain (ZIKV-BR) in cervical cells; test: Viral genome detection by RT-qPCR in supernatants of infected cervical cells; format: cell-based, Zika virus; settings: supernatant of cervical cells; for ZIKV genome copies/mL: MOI 10, 12 µM, 48 h, control 6.7 ± 0.7 × 10^8; for reduction of viral load: 12 µM, compared to control
[6] = Cytotoxicity assay (PrestoBlue) in mock-infected cervical cells; format: cell-based; settings: human
[7] = tested on: Brazilian ZIKV strain (ZIKV-BR) in Vero cells; test: Plaque-forming reduction assay, supernatants of infected Vero cells; format: cell-based, Zika virus; settings: MOI 1, 12 µM, 48 h; for inhibition at 12 µM: Zika virus, read-out: Vero cells PFR (%)
[8] = tested on: ZIKV strain MR766 in Vero cells; parameters: method as in earlier work; settings: cited from earlier work
ZIKV-BR in Vero cells = settings: read-out: concentration giving 50% of viral inhibition, MOI 0.1; cited from earlier work
[9] = tested on: P. falciparum W2-chloroquine-resistant clone; settings: in vitro, read-out: IC50 antiplasmodial; cited from earlier work
[10] = C33-A cervical epithelial cells (mock-infected), mock-infected cervical cells, 48 h, PrestoBlue, read-out: CC50 (μM)/48 h Cervical

Structure (SMILES) | EC50 [1] [µM] | EC90 [1] [µM] | Cervical cells IS (selectivity index, CC50/EC50) [1] | Cervical cells PFR (%) ([1]; MOI 10, 12 µM, 48 h) | inhibition at 6 µM ([1]; 48 h, 48 h) [%] | inhibition at 12 µM ([1]; 48 h, MOI 10, 12 µM, 48 h) [%] | CC50 at 48 h [2] [µM] | reduction of infected cells [3] | CC50 [4] [µM] | ZIKV genome copies/mL [5] | CC50 at 48 h [6] [µM] | Vero cells PFR (%) [7] [%] | inhibition at 12 µM [7] [%] | EC50 [8] [µM] | inhibition at 25 µM ([1]; 48 h, 48 h) [%] | reduction of viral load [5] [logs] | CC50 at 48 h [6, 10] [µM] | EC50 (ZIKV-BR in Vero cells) [µM] | IC50 [9] [µM]
OC(c1cc(C(F)(F)F)nc2c(C(F)(F)F)cccc12)C1CCCCN1 [Mefloquine, (R)-(2.8-bis(trifluoromethyl)quinolin-4-yl)((S)-piperidin-2-yl)methanol hydrochloride, reference compound] | 1.6 ± 0.1 | 3.5 ± 0.2 | 30.5 | 100 | 97.7 ± 0.3 | 100 | 26.7 ± 0.9 | 96.3% ± 3.7 | 17.7 ± 3.5 | 2.0 ± 0.6 × 10^5 copies/mL | 48.8 ± 0.2 | 100 | 100 | 3.9 ± 0.2 |  |  |  |  | 
O=S(=O)(NCCCCNc1ccnc2cc(Cl)ccc12)c1ccccc1 [C-Sd4, N-(4-((7-chloroquinolin-4-yl)amino)butyl)-benzenesulfonamide] | 5 ± 0.2 | 11.6 ± 0.1 |  |  | 56.6 ± 0.5 | 92.5 ± 0.2 | 143 ± 1.3 |  |  | 5.1 ± 0.6 × 10^6 copies/mL |  |  | 100 |  | 100 | 2 | > 200 |  | 
CCN(CC)CCCC(C)Nc1ccnc2cc(Cl)ccc12 (centres unmarked) [chloroquine] |  |  |  |  |  |  |  |  |  |  |  |  |  |  |  |  |  | 12 ± 3.2 | 
O=S(=O)(NCCCCNc1ccnc2cc(Cl)ccc12)c1ccc(Cl)cc1 [C-Sd5, 4-Chloro-N-(4-((7-chloroquinolin-4-yl)amino)butyl)-benzenesulfonamide] | 3.2 ± 0.1 | 7.2 ± 0.1 | > 62.5 |  | 82.3 ± 0.3 | 99.5 ± 0.2 | 52.2 ± 3.2 |  |  | 2.0 ± 0.4 × 10^5 copies/mL |  |  | 100 |  | 100 | 3 | > 200 |  | 
COc1ncnc(NS(=O)(=O)c2ccc(N)cc2)c1OC [sulfadoxine] |  |  |  |  |  |  |  |  |  |  |  |  |  |  |  |  |  |  | > 15.5

Continued, in another order:

EC50 [1] [µM] | EC90 [1] [µM] | Structure (SMILES) | Cervical cells IS (selectivity index, CC50/EC50) [1] | Cervical cells PFR (%) ([1]; MOI 10, 12 µM, 48 h) | inhibition at 6 µM ([1]; 48 h, 48 h) [%] | inhibition at 12 µM ([1]; 48 h, MOI 10, 12 µM, 48 h) [%] | CC50 at 48 h [2] [µM] | reduction of infected cells [3] | CC50 [4] [µM] | ZIKV genome copies/mL [5] | CC50 at 48 h [6] [µM] | Vero cells PFR (%) [7] [%] | inhibition at 12 µM [7] [%] | EC50 [8] [µM] | inhibition at 25 µM ([1]; 48 h, 48 h) [%] | reduction of viral load [5] [logs] | CC50 at 48 h [6, 10] [µM] | EC50 (ZIKV-BR in Vero cells) [µM] | IC50 [9] [µM]
3.3 ± 0.2 | 7.8 ± 0.4 | O=S(=O)(NCCCNc1ccnc2cc(Cl)ccc12)c1ccc(Br)cc1 [C-Sd2, 4-Bromo-N-(3-((7-chloroquinolin-4-yl)amino)propyl)-benzenesulfonamide] |  |  | 80.8 ± 0.8 | 93.7 ± 0.3 | 56.7 ± 0.4 |  |  | 2.8 ± 0.4 × 10^6 copies/mL |  |  | 100 |  | 100 | 2 | 112 ± 1.8 |  | 
3.3 ± 0.1 | 7.4 ± 0.2 | O=S(=O)(NCCCCNc1ccnc2cc(Cl)ccc12)c1ccc(Br)cc1 [C-Sd6, 4-Bromo-N-(4-((7-chloroquinolin-4-yl)amino)butyl)-benzenesulfonamide] | > 60.6 |  | 82 ± 0.5 | 94.8 ± 0.5 | 43.2 ± 0.4 | over 88% |  | 2.0 ± 0.2 × 10^5 copies/mL |  |  | 100 |  | 100 | 3 | > 200 |  | 
3.6 ± 0.2 | 9.6 ± 0.6 | Cc1ccc(S(=O)(=O)NCCCNc2ccnc3cc(Cl)ccc23)cc1 [C-Sd1, N-(3-((7-chloroquinolin-4-yl)amino)propyl)-4-methyl-benzenesulfonamide] |  |  | 75.3 ± 1.3 | 94.2 ± 0.5 | 97 ± 0.5 |  |  | 1.0 ± 0.1 × 10^6 copies/mL |  |  | 100 |  | 100 | 2 | 130 ± 2 |  | 
3.7 ± 0.1 | 10.1 ± 0.1 | O=S(=O)(NCCCNc1ccnc2cc(Cl)ccc12)c1ccc(F)cc1 [C-Sd3, N-(3-((7-chloroquinolin-4-yl)amino)propyl)-4-fluorobenzenesulfonamide] |  |  | 75 ± 1 | 94 ± 0.7 | 141 ± 4.4 |  |  | 4.9 ± 0.3 × 10^6 copies/mL |  |  | 100 |  | 100 | 2 | > 200 |  | 
3.6 ± 0.1 | 9.9 ± 0.2 | O=S(=O)(NCCCCNc1ccnc2cc(Cl)ccc12)c1ccc(F)cc1 [C-Sd7, N-(4-((7-chloroquinolin-4-yl)amino)butyl)-4-fluorobenzenesulfonamide] |  |  | 75.1 ± 0.8 | 94.7 ± 0.7 | 74.8 ± 1.2 |  |  | 2.6 ± 0.5 × 10^6 copies/mL |  |  | 100 |  | 100 | 2 | > 200 |  | 

— article PMC7823661 (Viruses, 2020)
